Experiment [1] addresses 5-hydroxytryptamine receptor 2A (Mus musculus, UniProt P35363). In kind it is functional, cell-based.
The target in experiment [2] is T1, Mu-type opioid receptor (Homo sapiens, UniProt P35372). Format: functional, cell-based.
The target in experiment [3] is Kallikrein-7 (Homo sapiens, UniProt P49862). Description: Fluorescence Intensity-based biochemical primary high throughput dose response assay to identify activators of kallikrein-7 (K7) zymogen.
For experiment [4], the target named is T2, Calpain-2 catalytic subunit (Sus scrofa, UniProt P43367).
T2 sequence (P43367 whole entry): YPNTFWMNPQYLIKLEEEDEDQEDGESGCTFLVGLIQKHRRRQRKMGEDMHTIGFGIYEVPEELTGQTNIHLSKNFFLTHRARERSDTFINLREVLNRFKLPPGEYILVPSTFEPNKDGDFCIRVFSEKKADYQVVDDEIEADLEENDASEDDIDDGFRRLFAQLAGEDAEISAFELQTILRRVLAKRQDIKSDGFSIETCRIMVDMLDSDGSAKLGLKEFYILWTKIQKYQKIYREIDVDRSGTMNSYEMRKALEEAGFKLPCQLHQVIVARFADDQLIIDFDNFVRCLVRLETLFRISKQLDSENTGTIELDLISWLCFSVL
Description: pig calpain II inhibitor potency, dose response, biochemical, fluorogenic peptide substrate (AID 1420). In kind it is functional.

Experiment [5] in a line: EDANS-DABCYL fluorescence interference, concentration series, dose response, artefact control for kallikrein-7 zymogen activator project, biochemical, fluorescence intensity, triplicate (AID 720493).
A short description of experiment [6]: inhibitors of intracellular T. cruzi replication, confirmation, NIH3T3 host cells, beta-gal luminescence (AID 2044).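 Also: intracellular parasites grown in NIH/3T3 mouse fibroblasts as host cells; luminescent beta-galactosidase reporter signal from transgenic T. cruzi replicating inside host cells; inhibitors lower the luminescence signal.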 Format: functional, cell-based.
Experiment [7] addresses Disintegrin and metalloproteinase domain-containing protein 17 (Homo sapiens, UniProt P78536). Description: ADAM17 protease inhibitors, dose response, counter-screen for ADAM10 exosite inhibitor project, biochemical, quenched FRET substrate (AID 743253). Background: The purpose of a counterscreen is to sort out artefacts and off-target activity.
Experiment [8] in a line: cytotoxicity toward NIH3T3 fibroblasts, dose response, counter-screen, cell-based, ATP luminescence, mouse fibroblasts (AID 2010).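 Also: cells exposed to compound for about 90 hours before reading.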 Format: functional.
A short description of experiment [9]: ADAM10 inhibitors, peptide cleavage, dose response, biochemical, QFRET (AID 743254).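 Also: ADAM10 enzyme with the DM2 quenched FRET peptide as substrate; EDANS fluorescence gain as the protease cuts the substrate; inhibitor potency against ADAM10 proteolytic activity.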
Experiment [10] in a line: HepG2 cell cytotoxicity, dose response, cytotoxicity control, ATP luminescence, cherry-pick, set 6 (AID 1053125). Format: functional, cell-based.
Experiment [11] has as its target T3, CAAX prenyl protease 2 (Homo sapiens, UniProt Q9Y256).
T3 sequence (Q9Y256 whole entry): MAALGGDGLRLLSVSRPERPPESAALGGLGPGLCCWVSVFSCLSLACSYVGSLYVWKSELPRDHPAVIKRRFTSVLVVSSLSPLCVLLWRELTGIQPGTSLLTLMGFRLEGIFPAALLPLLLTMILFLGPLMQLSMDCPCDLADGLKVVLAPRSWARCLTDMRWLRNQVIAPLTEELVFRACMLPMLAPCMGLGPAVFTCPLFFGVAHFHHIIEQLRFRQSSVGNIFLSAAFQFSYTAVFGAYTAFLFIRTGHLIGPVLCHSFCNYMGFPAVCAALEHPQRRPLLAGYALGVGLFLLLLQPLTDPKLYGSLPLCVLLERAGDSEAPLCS
Description: human Rce1 protease inhibitors, dose response, biochemical, yeast membranes, quenched-peptide fluorescence, cherry-pick (AID 588849).

Experiment [12] addresses Trypsin (Sus scrofa, UniProt P00761). Description: porcine trypsin inhibitors, dose response, selectivity assay for Rce1 protease inhibitor project, biochemical, quenched peptide fluorescence, cherry-pick (AID 488789).
Experiment [13] can be described thus: cells. The conditions noted are these: HEK293.
For experiment [14], the target named is T4, CAAX prenyl protease 2 (Saccharomyces cerevisiae S288c, UniProt Q03530).
T4 sequence (Q03530 whole entry): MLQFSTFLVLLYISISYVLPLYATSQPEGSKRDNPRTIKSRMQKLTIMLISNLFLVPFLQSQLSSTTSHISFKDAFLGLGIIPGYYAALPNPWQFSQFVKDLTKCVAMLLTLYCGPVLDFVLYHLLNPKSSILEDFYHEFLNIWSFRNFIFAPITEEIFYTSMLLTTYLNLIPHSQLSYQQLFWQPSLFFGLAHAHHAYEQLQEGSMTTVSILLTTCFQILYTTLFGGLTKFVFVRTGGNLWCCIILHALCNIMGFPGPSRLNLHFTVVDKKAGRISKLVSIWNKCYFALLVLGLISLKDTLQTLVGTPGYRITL
In kind it is biochemical.

Experiment [15] can be described thus: cells.
Experiment [16] in a line: HEp-2 cell cytotoxicity, dose response, cytotoxicity control for RSV inhibitor project, HTS (AID 2410). In kind it is functional. The conditions noted are these: human respiratory syncytial virus.
The nature of experiment [17]: cells. The conditions noted are these: A549.
Experiment [18] has as its target Albumin (Bos taurus, UniProt P02769). Description: Counterscreen for inhibitors of T-cell receptor (TCR)-CD3 interaction: Fluorescence-based biochemical high throughput dose response assay to identify inhibitors of T-cell receptor (TCR)-CD3 interaction using a TAMRA-labeled BSA probe. Format: functional.
Experiment [19] deals with T5, Beta-2 adrenergic receptor (Homo sapiens, UniProt P07550). The experiment is described as follows: beta2AR agonists driving receptor internalization, dose response, cell-based, FAP fluorogen, flow cytometry, cherry pick 1 (AID 588763). Format: functional. Background: In flow cytometry, cells or beads pass a laser one at a time.
T5 sequence (P07550 whole entry): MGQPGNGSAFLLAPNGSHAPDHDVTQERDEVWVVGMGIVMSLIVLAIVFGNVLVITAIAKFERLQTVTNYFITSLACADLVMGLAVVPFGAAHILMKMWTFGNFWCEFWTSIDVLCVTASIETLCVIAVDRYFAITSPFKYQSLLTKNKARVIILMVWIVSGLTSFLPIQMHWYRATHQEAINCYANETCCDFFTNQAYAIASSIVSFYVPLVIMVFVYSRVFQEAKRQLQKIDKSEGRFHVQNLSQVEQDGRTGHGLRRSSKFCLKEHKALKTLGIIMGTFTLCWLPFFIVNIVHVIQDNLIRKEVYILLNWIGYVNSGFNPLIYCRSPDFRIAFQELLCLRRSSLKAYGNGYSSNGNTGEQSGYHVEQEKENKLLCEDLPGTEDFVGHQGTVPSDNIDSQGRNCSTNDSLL
The nature of experiment [20]: Luminescence Cell-Based Dose Retest to Confirm Inhibitors of Cancer Stem Cells. [Related pubchem assays (depositor defined):AID2717, AID2721]. The following applies: Homo sapiens. Format: functional.
The target of experiment [21] is T5, Beta-2 adrenergic receptor. The experiment is described as follows: Dose response for HTS for Beta-2AR agonists via FAP method from Powderset3. Format: functional.
Experiment [22] has as its system HEK293. Description: HEK293T cell cytotoxicity, dose response, cytotoxicity control, ATP luminescence, cherry-pick samples (AID 687005).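 Also: cells exposed to compound for 48 hours.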 Format: functional, cell-based. The following applies: Homo sapiens.
A short description of experiment [23]: HEK293 Cytotoxicity Assay Measured in Cell-Based System Using Plate Reader - 7071-01_Inhibitor_Dose_CherryPick_Activity_Set2. In kind it is functional.
Experiment [24] concerns HeLa. The experiment is described as follows: HeLa cell cytotoxicity, dose response, cytotoxicity control, ATP luminescence, cherry-pick samples (AID 687004). Format: functional, cell-based. The conditions noted are these: Homo sapiens.
Experiment [25] can be described thus: A Cell-Based Confirmatory Screen for Compounds that Inhibit VEEV, TC-83 (7). In kind it is functional.
Experiment [26] can be described thus: T. cruzi intracellular amastigote growth inhibition, dose response, imaging, CA-I/72 strain, bovine embryo skeletal muscle, dry powder (AID 651885). Format: functional, cell-based.
The target of experiment [27] is Metabotropic glutamate receptor 5 (Rattus norvegicus, UniProt P31424). The experiment is described as follows: Identification of a glycine sulfonamide based non-MPEP site positive allosteric potentiator (PAM) of mGlu5 (calcium_assay). In kind it is functional.
Metabotropic glutamate receptor 5, sequence (P31424 whole entry): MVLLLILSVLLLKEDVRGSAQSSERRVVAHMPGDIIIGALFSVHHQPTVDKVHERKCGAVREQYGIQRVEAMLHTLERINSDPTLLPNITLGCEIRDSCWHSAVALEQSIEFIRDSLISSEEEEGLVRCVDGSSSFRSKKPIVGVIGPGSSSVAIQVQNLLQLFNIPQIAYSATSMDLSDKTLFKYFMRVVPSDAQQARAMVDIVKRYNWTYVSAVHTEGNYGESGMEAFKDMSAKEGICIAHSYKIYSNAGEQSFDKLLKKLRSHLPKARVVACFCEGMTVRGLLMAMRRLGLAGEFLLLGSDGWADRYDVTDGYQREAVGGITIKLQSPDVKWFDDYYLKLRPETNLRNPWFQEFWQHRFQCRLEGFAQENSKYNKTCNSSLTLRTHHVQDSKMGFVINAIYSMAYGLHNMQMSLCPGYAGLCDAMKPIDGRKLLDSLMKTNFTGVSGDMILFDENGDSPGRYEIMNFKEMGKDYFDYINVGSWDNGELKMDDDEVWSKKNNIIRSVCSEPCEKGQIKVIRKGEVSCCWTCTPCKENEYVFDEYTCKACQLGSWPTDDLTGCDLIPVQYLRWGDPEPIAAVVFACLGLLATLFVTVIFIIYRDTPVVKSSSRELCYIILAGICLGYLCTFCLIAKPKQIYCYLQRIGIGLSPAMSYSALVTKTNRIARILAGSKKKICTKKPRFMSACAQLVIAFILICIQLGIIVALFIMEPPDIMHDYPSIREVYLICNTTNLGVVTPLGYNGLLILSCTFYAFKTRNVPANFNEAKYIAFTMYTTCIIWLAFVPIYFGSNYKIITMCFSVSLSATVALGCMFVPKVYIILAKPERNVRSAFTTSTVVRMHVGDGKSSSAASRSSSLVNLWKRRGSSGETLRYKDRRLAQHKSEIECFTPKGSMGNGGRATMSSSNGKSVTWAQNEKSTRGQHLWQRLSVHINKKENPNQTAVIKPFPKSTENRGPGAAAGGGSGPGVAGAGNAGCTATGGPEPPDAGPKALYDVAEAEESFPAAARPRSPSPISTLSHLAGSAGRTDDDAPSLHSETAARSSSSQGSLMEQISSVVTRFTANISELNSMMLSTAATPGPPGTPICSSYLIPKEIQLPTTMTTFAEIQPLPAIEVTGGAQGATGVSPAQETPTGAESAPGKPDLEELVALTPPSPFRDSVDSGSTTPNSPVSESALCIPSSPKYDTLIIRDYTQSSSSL
A short description of experiment [28]: YAP1 pathway inhibition via CTGF transcript levels, dose response, cell-based, DLD1 colon cancer, RT-qPCR, cherry-pick (AID 1053122). In kind it is functional. The following applies: Cancer cell lines. On the technique in general: Quantitative PCR measures a nucleic acid by following its amplification.
The target in experiment [29] is T1, Mu-type opioid receptor. Description: Late-stage results from the probe development effort to identify antagonists of OPRK1: luminescence-based cell-based dose response OPRM1 counterscreen. In kind it is functional.
The target in experiment [30] is Delta-type opioid receptor (Homo sapiens, UniProt P41143). The experiment is described as follows: Late-stage results from the probe development effort to identify antagonists of OPRK1: fluorescence-based cell-based dose response OPRD1 counterscreen. Format: functional.
Delta-type opioid receptor, sequence (P41143 whole entry): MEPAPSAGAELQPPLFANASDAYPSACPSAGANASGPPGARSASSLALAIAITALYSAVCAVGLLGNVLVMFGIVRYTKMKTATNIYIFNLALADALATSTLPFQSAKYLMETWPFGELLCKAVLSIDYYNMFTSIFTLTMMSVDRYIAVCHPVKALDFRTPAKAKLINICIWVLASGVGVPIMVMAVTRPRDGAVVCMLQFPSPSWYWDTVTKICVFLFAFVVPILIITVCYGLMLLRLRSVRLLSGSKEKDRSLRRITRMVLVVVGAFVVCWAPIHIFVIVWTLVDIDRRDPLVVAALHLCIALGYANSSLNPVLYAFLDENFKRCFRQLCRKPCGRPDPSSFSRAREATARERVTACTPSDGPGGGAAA
Experiment [31] is described as follows: HepG2 cell cytotoxicity, dose response, cytotoxicity control, luminescence, dry powder, set 5 (AID 743185). Format: functional, cell-based.
Experiment [32] can be described thus: NIH/3T3 fibroblast cytotoxicity, dose response, cytotoxicity control, cell-based, plate reader, dry powder, set 2 (AID 652280). In kind it is functional. The conditions noted are these: NIH3T3.
Experiment [33] can be described thus: IRAP inhibitors, dose response, selectivity assay for ERAP1 modulator project, biochemical, Leu-AMC fluorescence, cherry-picked samples, set 2 (AID 743340).
The target in experiment [34] is Protein disulfide-isomerase (Homo sapiens, UniProt P07237). Description: PDI inhibitors, insulin turbidity readout, confirmation, biochemical, dry powder samples, set 2 (AID 652146).
Protein disulfide-isomerase, sequence (P07237 whole entry): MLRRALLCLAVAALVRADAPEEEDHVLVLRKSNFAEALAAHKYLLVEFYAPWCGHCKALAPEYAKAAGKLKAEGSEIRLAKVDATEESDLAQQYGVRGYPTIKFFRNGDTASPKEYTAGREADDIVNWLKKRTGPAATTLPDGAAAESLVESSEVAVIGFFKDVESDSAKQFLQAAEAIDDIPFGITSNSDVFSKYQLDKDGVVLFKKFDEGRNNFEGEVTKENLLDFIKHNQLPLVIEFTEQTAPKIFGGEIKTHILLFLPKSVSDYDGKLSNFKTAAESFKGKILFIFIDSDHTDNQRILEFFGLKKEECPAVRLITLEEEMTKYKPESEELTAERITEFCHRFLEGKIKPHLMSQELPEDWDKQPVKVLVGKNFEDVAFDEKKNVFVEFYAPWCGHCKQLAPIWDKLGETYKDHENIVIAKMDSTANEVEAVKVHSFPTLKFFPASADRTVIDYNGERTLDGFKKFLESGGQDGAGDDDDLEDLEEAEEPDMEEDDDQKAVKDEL
Experiment [35] can be described thus: HEK293 cell cytotoxicity, dose response, cytotoxicity control, HEK293T, ATP luminescence, dry powder (AID 652119). Format: functional, cell-based.

The values below come from ChEMBL document CHEMBL1201862, “PubChem BioAssay data set” (2004).

The source made the active and inactive calls.

T1 sequence (P35372 whole entry): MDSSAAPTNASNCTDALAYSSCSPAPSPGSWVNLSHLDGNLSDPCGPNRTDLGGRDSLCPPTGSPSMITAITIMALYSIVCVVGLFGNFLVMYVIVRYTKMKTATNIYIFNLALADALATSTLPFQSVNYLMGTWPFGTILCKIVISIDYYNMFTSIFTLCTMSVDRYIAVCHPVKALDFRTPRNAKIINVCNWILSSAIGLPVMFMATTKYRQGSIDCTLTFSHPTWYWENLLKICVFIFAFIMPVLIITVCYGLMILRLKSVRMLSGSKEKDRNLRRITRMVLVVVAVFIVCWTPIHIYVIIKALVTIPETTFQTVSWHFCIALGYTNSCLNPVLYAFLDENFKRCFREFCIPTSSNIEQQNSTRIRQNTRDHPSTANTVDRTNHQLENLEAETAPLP
Albumin, sequence (P02769 whole entry): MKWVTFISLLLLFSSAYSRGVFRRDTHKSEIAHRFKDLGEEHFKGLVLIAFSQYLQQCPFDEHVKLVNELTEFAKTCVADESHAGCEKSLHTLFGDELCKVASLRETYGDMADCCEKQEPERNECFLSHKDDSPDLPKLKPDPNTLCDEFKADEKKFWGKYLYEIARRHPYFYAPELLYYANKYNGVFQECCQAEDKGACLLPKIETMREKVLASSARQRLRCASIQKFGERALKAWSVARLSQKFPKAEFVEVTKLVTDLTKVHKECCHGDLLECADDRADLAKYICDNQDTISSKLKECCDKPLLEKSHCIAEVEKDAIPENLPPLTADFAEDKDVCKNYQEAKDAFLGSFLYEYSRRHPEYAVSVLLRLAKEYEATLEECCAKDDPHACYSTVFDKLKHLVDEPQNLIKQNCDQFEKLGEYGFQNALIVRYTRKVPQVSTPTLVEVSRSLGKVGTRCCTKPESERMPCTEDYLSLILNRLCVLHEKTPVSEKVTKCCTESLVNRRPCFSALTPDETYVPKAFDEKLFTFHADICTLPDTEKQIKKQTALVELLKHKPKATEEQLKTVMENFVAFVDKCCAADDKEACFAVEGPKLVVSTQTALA
Trypsin, sequence (P00761 whole entry): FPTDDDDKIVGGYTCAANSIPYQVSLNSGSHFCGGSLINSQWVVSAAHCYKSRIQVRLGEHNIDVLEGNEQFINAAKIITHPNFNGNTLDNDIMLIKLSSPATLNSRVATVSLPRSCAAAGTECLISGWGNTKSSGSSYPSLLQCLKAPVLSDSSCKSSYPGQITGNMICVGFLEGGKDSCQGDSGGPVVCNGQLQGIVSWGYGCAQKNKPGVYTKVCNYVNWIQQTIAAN
Kallikrein-7, sequence (P49862 whole entry): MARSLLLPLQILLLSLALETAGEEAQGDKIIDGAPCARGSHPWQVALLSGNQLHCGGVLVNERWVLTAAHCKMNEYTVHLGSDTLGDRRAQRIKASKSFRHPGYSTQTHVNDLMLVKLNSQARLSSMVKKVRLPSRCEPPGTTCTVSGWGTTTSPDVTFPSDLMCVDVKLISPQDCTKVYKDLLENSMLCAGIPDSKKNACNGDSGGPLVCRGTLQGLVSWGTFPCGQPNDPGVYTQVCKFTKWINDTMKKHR
Disintegrin and metalloproteinase domain-containing protein 17, sequence (P78536 whole entry, the tested form may be a part): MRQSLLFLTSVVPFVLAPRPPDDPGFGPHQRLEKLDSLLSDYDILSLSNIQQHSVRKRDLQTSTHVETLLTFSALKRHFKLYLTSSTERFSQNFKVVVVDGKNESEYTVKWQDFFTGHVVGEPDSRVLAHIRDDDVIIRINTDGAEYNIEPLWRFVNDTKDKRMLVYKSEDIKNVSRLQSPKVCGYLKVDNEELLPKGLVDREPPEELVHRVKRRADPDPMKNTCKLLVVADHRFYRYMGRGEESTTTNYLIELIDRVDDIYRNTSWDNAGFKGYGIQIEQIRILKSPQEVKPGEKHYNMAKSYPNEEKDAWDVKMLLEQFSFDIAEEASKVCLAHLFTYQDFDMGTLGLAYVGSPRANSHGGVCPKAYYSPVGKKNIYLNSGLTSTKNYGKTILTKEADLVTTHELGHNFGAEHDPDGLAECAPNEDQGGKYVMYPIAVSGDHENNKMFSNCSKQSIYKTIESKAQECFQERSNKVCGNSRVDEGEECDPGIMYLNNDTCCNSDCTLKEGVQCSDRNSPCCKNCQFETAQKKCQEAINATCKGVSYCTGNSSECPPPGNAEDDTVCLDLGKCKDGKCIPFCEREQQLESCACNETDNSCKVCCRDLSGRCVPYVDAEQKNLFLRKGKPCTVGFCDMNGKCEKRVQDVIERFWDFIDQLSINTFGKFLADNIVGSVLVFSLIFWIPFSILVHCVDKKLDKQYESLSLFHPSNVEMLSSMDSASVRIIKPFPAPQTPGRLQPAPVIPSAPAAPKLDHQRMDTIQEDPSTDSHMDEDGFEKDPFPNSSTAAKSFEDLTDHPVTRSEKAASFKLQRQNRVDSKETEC

By EC50 is commonly meant the midpoint of the concentration-response curve. Take `CC(C)(C)C1CCC(OCC(O)CN2CCN(c3ccccn3)CC2)CC1` (configuration not stated): the EC50 in experiment [1] was 0.548 µM (active); in [2], 92.5 µM (inactive).

Usually IC50 stands for the concentration that gives 50% inhibition. With `COc1ccc2c(c1)C(=O)CC(O)(C(F)F)O2` (configuration not stated), the EC50 in [3] was 16.5 µM (inactive); in experiment [5] it was > 7.73 µM (active). Further, in experiment [4], the 50% inhibitory concentration (IC50) is 8.34 µM (not active).

Take `O=S(=O)(c1ccc(NC(=S)NCCC(c2ccccc2)c2ccccc2)cc1)N1CCOCC1`: the EC50 was 1.86 µM (active) in experiment [6] and > 30 µM (not active) in experiment [8]. In addition, the results for the IC50 in experiment [7] and in [9] were > 69.5 µM (inactive) and 13.2 µM (inactive), respectively.

The AC50 is the concentration at which the activity in the assay is half-maximal. On to `COC(=O)C1=CN(CC2CCCO2)C=C(C(=O)OC)C1c1cccc(O)c1` (configuration not stated), for which the AC50 in experiment [10] is > 52 µM (inactive); in [11], 2.08 µM (active); in experiment [12], 9.88 µM (active); in experiment [13], > 52 µM (inactive); in [14] it was 10.6 µM (active); in [15] it was 11.1 µM (active).

One may read the CC50 as the concentration that lowers cell viability or growth by half. On to `CCN1CCc2c(sc(NC(=O)Nc3ccc(Cl)c(Cl)c3)c2C(N)=O)C1`, for which the CC50 in [16] was 10.4 µM (active). In addition, the AC50 is 15.4 µM (active) in experiment [10], 15.2 µM (active) in [13] and 15.3 µM (active) in [17].

Take `CN=C(S)NNC(=O)c1cccn(Cc2ccc(Cl)c(Cl)c2)c1=O`: the IC50 in [18] is > 94 µM (inactive).

As to `Cc1ncc(CN2CCCC(C(=O)Nc3ccc(-c4cccc(F)c4)cc3)C2)s1` (configuration not stated), the EC50 in [19] was 3.37 µM (active); in experiment [21], 0.731 µM (active). In addition, in [20], the AC50 was 6.84 µM (active).

Regarding `C[C@@H](NC(=O)C[C@@H]1CC[C@@H]2[C@H](COC[C@H](O)CN2Cc2cc(F)ccc2F)O1)c1ccccc1`, the AC50 is 5.05 µM (active) in [22], 5.05 µM (active) in experiment [23] and > 52 µM (inactive) in [24].

Turning to `O=c1c2cc(F)c(F)cc2nc(CN2CCNCC2)n1-c1ccccc1`, the IC50 in experiment [25] is 22.4 µM (active).

For `C[C@@H]1CN([C@@H](C)CO)C(=O)c2cccc(NC(=O)c3ccncc3)c2O[C@H]1CN(C)Cc1ccc(C(=O)O)cc1`, the IC50 in [26] was 14.1 µM (inactive).

As to `CC(C(=O)Nc1ccccn1)N(c1ccccc1Cl)S(C)(=O)=O` (configuration not stated), the EC50 in experiment [27] was 10 µM (inconclusive).

`O=C(c1cccc(F)c1)N1CCCCN2[C@H](CO)[C@H](c3ccc(C#CC4(O)CCCC4)cc3)[C@@H]2C1`: in [28], the AC50 was 2.86 µM (active).

As for `COC(=O)c1cc(Br)cnc1N1CCC(NC2CCCCC2)CC1`, the IC50 was 1 µM (active) in experiment [29] and 19 µM (inactive) in experiment [30].

As to `O=C(N/N=C/c1c[nH]c2ccccc12)c1cccc(O)c1`, in experiment [31], the AC50 was > 52 µM (inactive).

On to `Cc1cccc(-c2ccc([C@H]3[C@H](CO)N4CCCCN(CCC(F)(F)F)C[C@@H]34)cc2)c1`, for which the AC50 in experiment [32] is 3.67 µM (active).

On to `C[C@H]1CN([C@@H](C)CO)C(=O)c2cccc(NC(=O)Nc3ccc(C(F)(F)F)cc3)c2O[C@@H]1CN(C)CC1CC1`, for which the AC50 in experiment [33] is 16 µM (active).

As for `C=CCOc1ccc(CN2CCC(CCOc3ccccc3)(C(=O)NCC)CC2)cc1Cl`, the AC50 in experiment [34] was > 30 µM (inactive); in experiment [35], > 52 µM (inactive).
